Test system: renal proximal tubule cells
Assay: Phenotypic transformation / lumen formation (tubulogenesis) in a confluent monolayer, by light and electron microscopy
Format: cell-based, rabbit
Conditions: density-arrested confluent monolayer; where present TGF-β1 10 ng/ml, EGF 1 nM, RA 0.1 μM; 144 hours in Example 1
Method: Rabbit renal proximal tubule cells were grown in primary culture by techniques reported by Humes et al. in Lab. Invest. 64:538-45 (1991). The cells were grown in 35 mm Corning culture dishes with serum-free, hormonally defined Dulbecco's Modified Eagle Hams F-12 media (1:1, v/v) containing L-glutamine, penicillin, streptomycin, 50 nM hydrocortisone, 5 μg/ml of insulin, and 5 μg/ml of transferrin. The cultures were maintained in a humidified 5% CO2/95% air incubator at 37° C. Medium was changed every 3 to 5 days, depending on nutrient requirements based upon cell number. Cultures became confluent in 9 to 12 days. Once confluent, various agents as described below were added in 20 μl aliquots at various times to promote changes in morphologic phenotype or pattern formation.
Specimens for ultrastructural analysis were fixed with 2% glutaraldehyde in Sorenson's buffer (pH 7.2, 310 mOsm). Postfixation occurred in 1% OsO4 followed by dehydration in ethanol. Specimens were transferred through propylene oxide into monomer mixture (poly/Bed 812A, Araldite, DDSA and DMP-30) and polymerized at 60° C. Thin sections were stained with uranyl acetate and lead citrate, and examined in a Zeiss 9-S2 transmission electron microscope.
Of note, in each aggregation of cells one or two lumen structures were usually observed in random sectioning of tissue culture preparations. […]

CC1=C(/C=C/C(C)=C/C=C/C(C)=C/C(=O)O)C(C)(C)CCC1 [RA, all-trans retinoic acid]
morphologic phenotype of the monolayer / lumen formation: no dramatic effect on the appearance of the monolayer

TGF-β1: transforming growth factor-β1 (porcine platelets) from R & D Systems
morphologic phenotype of the monolayer / lumen formation: no lumen formation was observed

Reference: US6410320B1, “Method and compositions for isolation and growth of kidney tubule stem cells, in vitro kidney tubulogenesis and ex vivo construction of renal tubules” (The University of Michigan, priority 1992, dated 2002)
